Test results: the NIST ThermoML archive (doi:10.1007/s10765-010-0737-5)
± gives the expanded uncertainty stated by the source.

Test: xn = mol fraction of the nth substance listed
Conditions: Liquid; for viscosity: 101 kPa, Capillary tube (Ostwald / Ubbelohde) method; for mass density: 101.3 kPa

CC(C)(C)Cl [2-chloro-2-methylpropane] + CC(C)OC(C)C
Conditions | mass density [kg/m3] | viscosity [mPa·s]
283.15 K, x1 = 0.049 | 738.51 ± 0.91 | 0.3693 ± 0.004
283.15 K, x1 = 0.0996 | 743.477 ± 0.9 | 0.3746 ± 0.0041
283.15 K, x1 = 0.1991 | 753.625 ± 0.88 | 0.386 ± 0.0042
283.15 K, x1 = 0.3212 | 766.738 ± 0.85 | 0.4025 ± 0.0043
283.15 K, x1 = 0.4189 | 777.752 ± 0.83 | 0.4183 ± 0.0044
283.15 K, x1 = 0.5148 | 789.053 ± 0.81 | 0.4365 ± 0.0046
283.15 K, x1 = 0.6213 | 802.211 ± 0.78 | 0.4606 ± 0.0048
283.15 K, x1 = 0.7152 | 814.386 ± 0.75 | 0.4862 ± 0.005
283.15 K, x1 = 0.8138 | 827.842 ± 0.73 | 0.5182 ± 0.0053
283.15 K, x1 = 0.9079 | 841.347 ± 0.7 | 0.555 ± 0.0056
283.15 K, x1 = 0.9552 | 848.401 ± 0.68 | 0.5761 ± 0.0058
283.15 K, x1 = 1 | 855.249 ± 0.67 | 0.598 ± 0.006
288.15 K, x1 = 0.049 | 733.338 ± 0.92 | 0.3531 ± 0.0039
288.15 K, x1 = 0.0996 | 738.271 ± 0.91 | 0.358 ± 0.0039
288.15 K, x1 = 0.1991 | 748.35 ± 0.89 | 0.3683 ± 0.004
288.15 K, x1 = 0.3212 | 761.373 ± 0.86 | 0.3827 ± 0.0041
288.15 K, x1 = 0.4189 | 772.308 ± 0.84 | 0.3963 ± 0.0043
288.15 K, x1 = 0.5148 | 783.527 ± 0.82 | 0.412 ± 0.0044
288.15 K, x1 = 0.6213 | 796.59 ± 0.79 | 0.4328 ± 0.0046
288.15 K, x1 = 0.7152 | 808.683 ± 0.77 | 0.4549 ± 0.0048
288.15 K, x1 = 0.8138 | 822.038 ± 0.74 | 0.4829 ± 0.005
288.15 K, x1 = 0.9079 | 835.446 ± 0.71 | 0.5154 ± 0.0053
288.15 K, x1 = 0.9552 | 842.442 ± 0.7 | 0.5342 ± 0.0054
288.15 K, x1 = 1 | 849.243 ± 0.68 | 0.5538 ± 0.0056
293.15 K, x1 = 0.049 | 728.121 ± 0.93 | 0.3381 ± 0.0038
293.15 K, x1 = 0.0996 | 733.024 ± 0.92 | 0.3425 ± 0.0038
293.15 K, x1 = 0.1991 | 743.024 ± 0.9 | 0.3515 ± 0.0039
293.15 K, x1 = 0.3212 | 755.959 ± 0.87 | 0.3641 ± 0.004
293.15 K, x1 = 0.4189 | 766.815 ± 0.85 | 0.376 ± 0.0041
293.15 K, x1 = 0.5148 | 777.959 ± 0.83 | 0.3894 ± 0.0042
293.15 K, x1 = 0.6213 | 790.929 ± 0.8 | 0.4075 ± 0.0044
293.15 K, x1 = 0.7152 | 802.935 ± 0.78 | 0.4268 ± 0.0045
293.15 K, x1 = 0.8138 | 816.186 ± 0.75 | 0.4512 ± 0.0047
293.15 K, x1 = 0.9079 | 829.489 ± 0.72 | 0.4796 ± 0.005
293.15 K, x1 = 0.9552 | 836.437 ± 0.71 | 0.4962 ± 0.0051
293.15 K, x1 = 1 | 843.191 ± 0.69 | 0.5135 ± 0.0053
298.15 K, x1 = 0.049 | 722.867 ± 0.94 | 0.3217 ± 0.0036
298.15 K, x1 = 0.0996 | 727.738 ± 0.93 | 0.3258 ± 0.0037
298.15 K, x1 = 0.1991 | 737.666 ± 0.91 | 0.3342 ± 0.0037
298.15 K, x1 = 0.3212 | 750.506 ± 0.88 | 0.3458 ± 0.0038
298.15 K, x1 = 0.4189 | 761.288 ± 0.86 | 0.3564 ± 0.0039
298.15 K, x1 = 0.5148 | 772.351 ± 0.84 | 0.3686 ± 0.004
298.15 K, x1 = 0.6213 | 785.231 ± 0.81 | 0.3845 ± 0.0042
298.15 K, x1 = 0.7152 | 797.145 ± 0.79 | 0.4014 ± 0.0043
298.15 K, x1 = 0.8138 | 810.301 ± 0.76 | 0.4229 ± 0.0045
298.15 K, x1 = 0.9079 | 823.502 ± 0.73 | 0.4476 ± 0.0047
298.15 K, x1 = 0.9552 | 830.397 ± 0.72 | 0.4619 ± 0.0048
298.15 K, x1 = 1 | 837.096 ± 0.71 | 0.4768 ± 0.0049
303.15 K, x1 = 0.049 | 717.578 ± 0.95 | 0.304 ± 0.0035
303.15 K, x1 = 0.0996 | 722.412 ± 0.94 | 0.308 ± 0.0035
303.15 K, x1 = 0.1991 | 732.264 ± 0.92 | 0.3164 ± 0.0036
303.15 K, x1 = 0.3212 | 745.013 ± 0.9 | 0.3277 ± 0.0037
303.15 K, x1 = 0.4189 | 755.716 ± 0.87 | 0.3379 ± 0.0038
303.15 K, x1 = 0.5148 | 766.702 ± 0.85 | 0.3492 ± 0.0039
303.15 K, x1 = 0.6213 | 779.484 ± 0.82 | 0.3639 ± 0.004
303.15 K, x1 = 0.7152 | 791.308 ± 0.8 | 0.3791 ± 0.0041
303.15 K, x1 = 0.8138 | 804.365 ± 0.77 | 0.3979 ± 0.0043
303.15 K, x1 = 0.9079 | 817.467 ± 0.75 | 0.4191 ± 0.0045
303.15 K, x1 = 0.9552 | 824.312 ± 0.73 | 0.4313 ± 0.0046
303.15 K, x1 = 1 | 830.958 ± 0.72 | 0.4438 ± 0.0047
308.15 K, x1 = 0.049 | 712.24 ± 0.96 | 0.2892 ± 0.0034
308.15 K, x1 = 0.0996 | 717.039 ± 0.95 | 0.2928 ± 0.0034
308.15 K, x1 = 0.1991 | 726.821 ± 0.93 | 0.3006 ± 0.0034
308.15 K, x1 = 0.3212 | 739.479 ± 0.91 | 0.3115 ± 0.0035
308.15 K, x1 = 0.4189 | 750.102 ± 0.89 | 0.3216 ± 0.0036
308.15 K, x1 = 0.5148 | 761.005 ± 0.86 | 0.3327 ± 0.0037
308.15 K, x1 = 0.6213 | 773.688 ± 0.84 | 0.3468 ± 0.0038
308.15 K, x1 = 0.7152 | 785.436 ± 0.81 | 0.3613 ± 0.004
308.15 K, x1 = 0.8138 | 798.392 ± 0.79 | 0.3787 ± 0.0041
308.15 K, x1 = 0.9079 | 811.393 ± 0.76 | 0.398 ± 0.0043
308.15 K, x1 = 0.9552 | 818.179 ± 0.74 | 0.4087 ± 0.0044
308.15 K, x1 = 1 | 824.772 ± 0.73 | 0.4196 ± 0.0045
313.15 K, x1 = 0.049 | 706.856 ± 0.97 | 0.2751 ± 0.0032
313.15 K, x1 = 0.0996 | 711.61 ± 0.96 | 0.2783 ± 0.0033
313.15 K, x1 = 0.1991 | 721.328 ± 0.94 | 0.2856 ± 0.0033
313.15 K, x1 = 0.3212 | 733.893 ± 0.92 | 0.2963 ± 0.0034
313.15 K, x1 = 0.4189 | 744.44 ± 0.9 | 0.3061 ± 0.0035
313.15 K, x1 = 0.5148 | 755.257 ± 0.88 | 0.3171 ± 0.0036
313.15 K, x1 = 0.6213 | 767.848 ± 0.85 | 0.3306 ± 0.0037
313.15 K, x1 = 0.7152 | 779.502 ± 0.82 | 0.3436 ± 0.0038
313.15 K, x1 = 0.8138 | 792.362 ± 0.8 | 0.3586 ± 0.0039
313.15 K, x1 = 0.9079 | 805.256 ± 0.77 | 0.3741 ± 0.0041
313.15 K, x1 = 0.9552 | 811.996 ± 0.76 | 0.3824 ± 0.0041
313.15 K, x1 = 1 | 818.536 ± 0.74 | 0.3904 ± 0.0042
